Results from US20250262209A1, “TREATMENT OF GASTROINTESTINAL DISEASES” (Aclipse Two, Inc., priority 2022, published 2025).

Columns and labels:
[1] = test system: TNF-α, IL-10, CCL2, and IL-1β gene expression in colon; experiment: QT-PCR gene expression in colon of the DSS-induced IBD model; format: in vivo, mice
Experimental: Animals were euthanized by CO2 at the end of study. Colon length and colon weight (cecum is not included) were recorded, and macroscopic changes were scored based on Table 2. The colon was cleaned using saline, and all feces were removed before weight measurement. The middle part of colon was collected in cassette and fixed in 10% neutral buffered formalin (NBF) for H&E and PAS staining. For left colon, mucosal from colon surface was removed and then snap frozen in liquid nitrogen and store at −80° C. for QT-PCR analysis of TNF-α, IL-10, CCL2, and IL-1β. QT-PCR primers were purchased from Sangon Biotech Co., Ltd.
Treatment of Tissue before RNA Extraction are as follows. • (a) Remove mucosal from colon surface. Cut colon tissue into small pieces on ice. • (b) Weight out the tissue no more than 30 mg and transfer the tissue into a lysing matrix D tube. Totally 700 µL Trizol was added in the tissue and lysing matrix D immediately. • (c) Put the lysing matrix D tubes which contain tissue, Lysing matrix, and 700 μL Trizol into the FastPrep™-24 Sample Preparation System. • (d) Set at speed 6 and grind for 2 min • (e) 140 μL chloroform was added into the tubes, shake the tubes vigorously by vortex for 15 seconds. Incubate at room temperature for 2 min. • (f) 12000 rpm centrifuge for 10 min at 4° C., • (g) Pipet the supernatant to 96 well 2.2 mL deep well plate
RNA Sample Preparation procedure is as follows. • (a) 600 μL Binding Buffer was added into column 1 and 7 • (b) 600 μL DNase Stop Buffer was added into column 2 I 8 • (c) 600 μL Wash Buffer was added into column 3, 4 and 9, 10 • (d) 100 μL Elution Buffer was added into column 5Id 11 • (e) 190 μL DEPC water and 10 μL MagaBio® Reagent was added into column 6 and 12 • (f) Transfer 300 μL of the colorless, upper phase containing the RNA to column 1 and 7 • (g) Put the test plate in nucleic acid purifier • (h) Set the instrument as below in Table 3.
The elution was transferred into a clean nuclease-free centrifuge tube and the RNA sample was store at −80° C.
To use the Takara Prime Script™ Reverse Transcription System, Mix and briefly centrifuge each component before use. Combine the following component volume as in Table 4.
• (a) Store on ice until reverse transcription mix is added. Centrifuge 10 seconds in a micro-centrifuge. Heat in a 42° C. heat block for 2 minutes, 4° C. immediately chill in ice water for at least 5 minutes. • (b) Prepare the reverse transcription reaction mix, 10 μL for each cDNA reaction. Combine on ice, in the order listed. Component volume of step b) (Table 5).
• (c) Combine 20 μL of reverse transcription mix, Centrifuge 10 seconds in a microcentrifuge. • (d) Anneal in a heat block at 37° C. for 15 min, 85° C. for 5 sec, 4° C. save on S100™ Thermal Cycler. • (e) Aliquot the cDNA sample and store at −20° C.
• (a) Make qPCR reaction mixture in one tube based on assay number and replicas. • (b) Prepare primers and master mix mixture according to manufacturer's instructions. And aliquot 9 μL of mixture into each well of the 384 qPCR plate. • (c) Transfer 1 μL of cDNA into each well of a 384 qPCR plate which already contain 9 μL of mixture. Briefly centrifuge the plate. • (d) Seal the plate • (e) Mix thoroughly, spin briefly • (f) Run the PCR Reaction • (g) Place the reaction plate in the instrument. • (h) Set the Applied Biosystems ViiA™ 7 cycling conditions as in Table 6.
Data were expressed as mean±SD. The 2-ΔΔCT method was used to analyze the mRNA expression level. The results were normalized for RNA input using glyceraldehydes-3-phosphate dehydrogenase (GAPDH or other internal controls). Statistical analysis was performed using, one-way ANOVA followed if significant by post-hoc Dunnett test. […] The difference was considered significant when p<0.05

[2] = test system: monocytes from PBMC, M1-to-M2 macrophage repolarization; experiment: M1-to-M2 macrophage repolarization assay; format: cell-based, human
From the text: The purpose of this study was to evaluate the effects of lobeglitazone and other thiazolidinediones on M1-to-M2 macrophage repolarization. The test articles and vehicles used in this study were lobeglitazone sulfate, pioglitazone HCl, and rosiglitazone.
M1-to-M2 macrophage repolarization assay timeline were as follows in Table 13.
Drug concentrations tested in the M1 differentiation assay are as in Table 14.
• (1) Isolate monocytes from PBMC using StemCell® monocyte isolation kit. • (2) Count cell and adjust the cell density to 0.5×10^6 cells/ml with fresh complete differentiation medium (add 10 μl M-CSF stock (100 μg/ml) 10 ml cell mixture to a final concentration of 50 ng/ml). • (3) Seed isolated monocyte 100 μL per well on 96-well plate. • (4) On day 4, add additional 100 μl medium containing M-CSF • (5) On day 6, add stimulator at 5× final concentration (200 μL medium in each well) to a final concentration of 50 ng/ml. • (6) On day 8, remove medium and replenish with 200 μL cytokine free medium, then add test compound (final concentration in μM) and incubate for 4 days. • (7) On day 12, add IL-4 and incubate for 2 days (add 50 μL of 100 ng/ml IL-4 to each well containing 200 μL medium to reach 20 ng/ml). • (8) On day 14, spin down the plates at 300×g for 5 min and collect the supernatant for cytokine quantification. • (9) M1 and M2 associated macrophage cytokines of interest are as follows in Table 15.
The cells are then collected for flow analysis of viability/CD11c/CD163/CD206.
Cell surface marker CD163, CD11c, and CD206 were applied to characterize M2 repolarization via flow cytometry. Controls included No stain and staining with all surface marker antibodies to confirm the optimization of gating strategy.

[3] = 0.36 mg/kg PO QD 10 days, vs model
[4] = 1.20 mg/kg PO QD 10 days, vs model
[5] = 3.61 mg/kg PO QD 10 days, vs model

With `COc1ccc(Oc2cc(N(C)CCOc3ccc(CC4SC(=O)NC4=O)cc3)ncn2)cc1` (stereo not shown) [lobeglitazone, 5-(4-(2-((6-(4-Methoxyphenoxy)pyrimidin-4-yl)(methyl)amino)ethoxy)benzyl)thiazolidine-2,4-dione] the “CCL2 gene expression levels in colon” value [1, 3] was “led to decreases”, the “IL-1B gene expression levels in colon” value [1, 3] was “significantly decreased” and the “TNF-α gene expression levels in colon” value [1, 3] was “significantly decreased”. The “CCL2 gene expression levels in colon” value [1, 4] was “led to decreases”, the “IL-1B gene expression levels in colon” value [1, 4] was “significantly decreased” and the “TNF-α gene expression levels in colon” value [1, 4] was “significantly decreased”. The “CCL2 gene expression levels in colon” value [1, 5] was “significantly decreased”, the “IL-1β gene expression levels in colon” value [1, 5] was “did not change” and the “TNF-α gene expression levels in colon” value [1, 5] was “didn't show obvious changes”. For the same molecule, the “IL-10 gene expression levels in colon” value ([1]; lobeglitazone groups (0.36, 1.20, 3.61 mg/kg PO QD 10 days)) was “did not change significantly”, the “GI inflammation, as evidenced by the gene expression data” value ([1]; mouse DSS model, 0.36 and 1.20, and 3.61 mg/kg) was “significantly decreased” and the “concentration at which M1-to-M2 repolarization was promoted (M2 macrophage surface markers, flow cytometry)” value ([2]; CD163, CD11c, CD206, lowest concentration with effect) was ~0.05 µM. The “concentration showing remarkable promotion of MDC expression” value ([2]; cytokine analysis (MSD), day 14 supernatant) was 0.1 µM.
